The target in the experiment is GLP-1R (Homo sapiens, UniProt P43220). The experiment can be described thus: GLP-1R Activation - cAMP Assay. It counts as cell-based. As to conditions: cAMP increase in CHO cells stably expressing GLP-1R; each compound run on one of the two cAMP assays (Assay 1 or Assay 2, not specified). The method, boiled down: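 cAMP rise read by HTRF after 30 min agonist exposure (10-point titration, 37 °C) in HBSS/20 mM Hepes/0.1% BSA, following 1 h pre-incubation. Cells: stable GLP-1R CHO line, 1,000/well, seeded overnight. Sigmoidal fit of response vs log concentration gives EC50.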
GLP-1R, sequence (P43220 24-463): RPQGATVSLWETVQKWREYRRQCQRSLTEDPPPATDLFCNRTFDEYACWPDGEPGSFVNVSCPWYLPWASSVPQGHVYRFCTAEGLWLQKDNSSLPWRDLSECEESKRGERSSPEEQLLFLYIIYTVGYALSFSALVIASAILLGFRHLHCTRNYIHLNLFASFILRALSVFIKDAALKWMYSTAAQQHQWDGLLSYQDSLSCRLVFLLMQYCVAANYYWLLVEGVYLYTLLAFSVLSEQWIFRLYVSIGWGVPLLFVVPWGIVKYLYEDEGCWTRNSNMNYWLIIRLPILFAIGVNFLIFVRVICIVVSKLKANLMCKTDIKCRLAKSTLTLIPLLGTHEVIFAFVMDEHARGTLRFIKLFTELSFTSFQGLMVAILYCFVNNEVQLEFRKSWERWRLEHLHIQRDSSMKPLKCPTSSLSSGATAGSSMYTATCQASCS
For `CC1(C)COC[C@H]1n1c(Cc2cc(F)c(-c3cccc(OCc4ccc(C(F)(F)F)cc4C#N)n3)cc2F)nc2ccc(C(=O)O)cc21` [Example 413, (S)-2-(4-(6-((2-cyano-4-(trifluoromethyl)benzyl)oxy)pyridin-2-yl)-2,5-difluorobenzyl)-1-(4,4-dimethyltetrahydrofuran-3-yl)-1H-benzo[d]imidazole-6-carboxylic acid], the midpoint of the response, the EC50, lay at 281 pM.
To `CC1(C)COC[C@H]1n1c(Cc2cc(F)c(-c3cccc(OCc4cnc(-n5ccnn5)cc4C(F)(F)F)n3)cc2F)nc2ccc(C(=O)O)cc21` [Example 414, (S)-2-(4-(6-((6-(1H-1,2,3-triazol-1-yl)-4-(trifluoromethyl)pyridin-3-yl)methoxy)pyridin-2-yl)-2,5-difluorobenzyl)-1-(4,4-dimethyltetrahydrofuran-3-yl)-1H-benzo[d]imidazole-6-carboxylic acid] belongs 261 pM; to `CC1(C)COC[C@H]1n1c(Cc2c(F)cc(-c3ccc(Cl)c(OCc4ccc(C#N)cc4)n3)c(F)c2F)nc2ccc(C(=O)O)cc21` [Example 415, (S)-2-(4-(5-chloro-6-((4-cyanobenzyl)oxy)pyridin-2-yl)-2,3,6-trifluorobenzyl)-1-(4,4-dimethyltetrahydrofuran-3-yl)-1H-benzo[d]imidazole-6-carboxylic acid], 491 pM.
In turn, `CC1(C)COC[C@H]1n1c(Cc2c(F)cc(-c3ccc(Cl)c(OCc4ccc(C#N)cc4F)n3)c(F)c2F)nc2ccc(C(=O)O)cc21` [Example 416, (S)-2-(4-(5-chloro-6-((4-cyano-2-fluorobenzyl)oxy)pyridin-2-yl)-2,3,6-trifluorobenzyl)-1-(4,4-dimethyltetrahydrofuran-3-yl)-1H-benzo[d]imidazole-6-carboxylic acid] yielded an EC50 of 235 pM.
In turn, `CC1(C)COC[C@H]1n1c(Cc2cc(F)c(-c3cccc(OCc4ccc(Cl)cc4F)n3)cc2F)nc2cc(F)c(C(=O)O)cc21` [Example 417, (S)-2-(4-(6-((4-chloro-2-fluorobenzyl)oxy)pyridin-2-yl)-2,5-difluorobenzyl)-1-(4,4-dimethyltetrahydrofuran-3-yl)-5-fluoro-1H-benzo[d]imidazole-6-carboxylic acid] returned an EC50 of 190 pM.
With `CC1(C)COC[C@H]1n1c(Cc2cc(F)c(-c3cccc(OCc4ccc(C#N)cc4)n3)cc2F)nc2cc(F)c(C(=O)O)cc21` [Example 418, (S)-2-(4-(6-((4-cyanobenzyl)oxy)pyridin-2-yl)-2,5-difluorobenzyl)-1-(4,4-dimethyltetrahydrofuran-3-yl)-5-fluoro-1H-benzo[d]imidazole-6-carboxylic acid], the midpoint of the response, the EC50, lay at 199 pM.
Take `CC1(C)COC[C@H]1n1c(Cc2cc(F)c(-c3cccc(OCc4ccc(C#N)cc4F)n3)cc2F)nc2cc(F)c(C(=O)O)cc21` [Example 419, (S)-2-(4-(6-((4-cyano-2-fluorobenzyl)oxy)pyridin-2-yl)-2,5-difluorobenzyl)-1-(4,4-dimethyltetrahydrofuran-3-yl)-5-fluoro-1H-benzo[d]imidazole-6-carboxylic acid]: the response was half-maximal at 112 pM (EC50).
The compound `CC1(C)COC[C@H]1n1c(Cc2cc(F)c(-c3cccc(OCc4ccc(C(F)F)nc4)n3)cc2F)nc2ccc(C(=O)O)cc21` [Example 420, (S)-2-(4-(6-((6-(difluoromethyl)pyridin-3-yl)methoxy)pyridin-2-yl)-2,5-difluorobenzyl)-1-(4,4-dimethyltetrahydrofuran-3-yl)-1H-benzo[d]imidazole-6-carboxylic acid] registered an EC50 of 413 pM.
As to `CC1(C)COC[C@H]1n1c(Cc2cc(F)c(-c3cccc(OCc4ccc(C#N)cc4)n3)cc2F)nc2cnc(C(=O)O)cc21` [Example 421, (S)-2-(4-(6-((4-cyanobenzyl)oxy)pyridin-2-yl)-2,5-difluorobenzyl)-1-(4,4-dimethyltetrahydrofuran-3-yl)-1H-imidazo[4,5-c]pyridine-6-carboxylic acid], the EC50 was determined as 3020 pM.
For `CC1(C)COC[C@H]1n1c(Cc2cc(F)c(-c3cccc(OCc4ccc(C#N)cc4F)n3)cc2F)nc2cnc(C(=O)O)cc21` [Example 422, (S)-2-(4-(6-((4-cyano-2-fluorobenzyl)oxy)pyridin-2-yl)-2,5-difluorobenzyl)-1-(4,4-dimethyltetrahydrofuran-3-yl)-1H-imidazo[4,5-c]pyridine-6-carboxylic acid], it took 3160 pM to reach a half-maximal effect (EC50).
For `CC1(C)COC[C@H]1n1c(Cc2cc(F)c(-c3cccc(OCc4ccc(Cl)cc4F)n3)cc2F)nc2cnc(C(=O)O)cc21` [Example 423, (S)-2-(4-(6-((4-chloro-2-fluorobenzyl)oxy)pyridin-2-yl)-2,5-difluorobenzyl)-1-(4,4-dimethyltetrahydrofuran-3-yl)-1H-imidazo[4,5-c]pyridine-6-carboxylic acid] the value was 2540 pM; for `CC1(C)COC[C@H]1n1c(Cc2cc(F)c(-c3cccc(OCc4ccc(OCC(F)(F)F)nc4)n3)cc2F)nc2ccc(C(=O)O)cc21` [Example 424, (S)-2-(2,5-difluoro-4-(6-((6-(2,2,2-trifluoroethoxy)pyridin-3-yl)methoxy)pyridin-2-yl)benzyl)-1-(4,4-dimethyltetrahydrofuran-3-yl)-1H-benzo[d]imidazole-6-carboxylic acid], 590 pM.
With `CC1(C)COC[C@H]1n1c(Cc2cc(F)c(-c3cccc(OCc4ccc(C(F)(F)F)nc4)n3)cc2F)nc2ccc(C(=O)O)cc21` [Example 425, (S)-2-(2,5-difluoro-4-(6-((6-(trifluoromethyl)pyridin-3-yl)methoxy)pyridin-2-yl)benzyl)-1-(4,4-dimethyltetrahydrofuran-3-yl)-1H-benzo[d]imidazole-6-carboxylic acid], a half-maximal effect (EC50) was put at 494 pM.
For the compound `Cn1cccc(COc2cccc(-c3cc(F)c(Cc4nc5ccc(C(=O)O)cc5n4[C@@H]4COCC4(C)C)cc3F)n2)c1=O` [Example 426, (S)-2-(2,5-difluoro-4-(6-((1-methyl-2-oxo-1,2-dihydropyridin-3-yl)methoxy)pyridin-2-yl)benzyl)-1-(4,4-dimethyltetrahydrofuran-3-yl)-1H-benzo[d]imidazole-6-carboxylic acid], the EC50 came to 1480 pM.
Consider `Cn1ccc(COc2cccc(-c3cc(F)c(Cc4nc5ccc(C(=O)O)cc5n4[C@@H]4COCC4(C)C)cc3F)n2)cc1=O` [Example 427, (S)-2-(2,5-difluoro-4-(6-((1-methyl-2-oxo-1,2-dihydropyridin-4-yl)methoxy)pyridin-2-yl)benzyl)-1-(4,4-dimethyltetrahydrofuran-3-yl)-1H-benzo[d]imidazole-6-carboxylic acid], for which the EC50 turned out to be 501 pM.
In turn, `CC1(C)COC[C@H]1n1c(Cc2cc(F)c(-c3ccc(F)c(OCc4ccc(C#N)cc4F)n3)cc2F)nc2ccc(C(=O)O)nc21` [Example 428, (S)-2-(4-(6-((4-cyano-2-fluorobenzyl)oxy)-5-fluoropyridin-2-yl)-2,5-difluorobenzyl)-3-(4,4-dimethyltetrahydrofuran-3-yl)-3H-imidazo[4,5-b]pyridine-5-carboxylic acid] registered an EC50 of 105 pM.
For `CC1(C)COC[C@H]1n1c(Cc2cc(F)c(-c3cccc(OCc4ccncc4F)n3)cc2F)nc2ccc(C(=O)O)cc21` [Example 429, (S)-2-(2,5-difluoro-4-(6-((3-fluoropyridin-4-yl)methoxy)pyridin-2-yl)benzyl)-1-(4,4-dimethyltetrahydrofuran-3-yl)-1H-benzo[d]imidazole-6-carboxylic acid], the EC50 is 139 pM.
Take `COc1cnccc1COc1cccc(-c2cc(F)c(Cc3nc4ccc(C(=O)O)cc4n3[C@@H]3COCC3(C)C)cc2F)n1` [Example 430, (S)-2-(2,5-difluoro-4-(6-((3-methoxypyridin-4-yl)methoxy)pyridin-2-yl)benzyl)-1-(4,4-dimethyltetrahydrofuran-3-yl)-1H-benzo[d]imidazole-6-carboxylic acid]: a half-maximal effect (EC50) was put at 20 pM.
`CC1(C)COC[C@H]1n1c(Cc2cc(F)c(-c3cccc(OCc4ccc(C5CC5)cc4)n3)cc2F)nc2ccc(C(=O)O)cc21` [Example 431, (S)-2-(4-(6-((4-cyclopropylbenzyl)oxy)pyridin-2-yl)-2,5-difluorobenzyl)-1-(4,4-dimethyltetrahydrofuran-3-yl)-1H-benzo[d]imidazole-6-carboxylic acid] displayed an EC50 of 377 pM.
In turn, `CC1(C)COC[C@H]1n1c(Cc2cc(F)c(-c3ccc(Cl)c(OCc4ccc(C#N)cc4)n3)cc2F)nc2ccc(C(=O)O)cc21` [Example 432, (S)-2-(4-(5-chloro-6-((4-cyanobenzyl)oxy)pyridin-2-yl)-2,5-difluorobenzyl)-1-(4,4-dimethyltetrahydrofuran-3-yl)-1H-benzo[d]imidazole-6-carboxylic acid] returned an EC50 of 114 pM.
For the compound `CC1(C)COC[C@H]1n1c(Cc2cc(F)c(-c3ccc(Cl)c(OCc4ccc(Cl)cc4)n3)cc2F)nc2ccc(C(=O)O)cc21` [Example 433, (S)-2-(4-(5-chloro-6-((4-chlorobenzyl)oxy)pyridin-2-yl)-2,5-difluorobenzyl)-1-(4,4-dimethyltetrahydrofuran-3-yl)-1H-benzo[d]imidazole-6-carboxylic acid], the concentration for a half-maximal effect (EC50) stood at 209 pM.
As to `CC1(C)COC[C@H]1n1c(Cc2cc(F)c(-c3ccc(Cl)c(OCc4ccc(C#N)cc4F)n3)cc2F)nc2ccc(C(=O)O)cc21` [Example 434, (S)-2-(4-(5-chloro-6-((4-cyano-2-fluorobenzyl)oxy)pyridin-2-yl)-2,5-difluorobenzyl)-1-(4,4-dimethyltetrahydrofuran-3-yl)-1H-benzo[d]imidazole-6-carboxylic acid], the EC50 came to 58 pM.
Take `CC1(C)COC[C@H]1n1c(Cc2cc(F)c(-c3cccc(OCc4ccc(Cl)cc4F)n3)cc2F)nc2ccc(C(=O)O)nc21` [Example 437, (S)-2-(4-(6-((4-chloro-2-fluorobenzyl)oxy)pyridin-2-yl)-2,5-difluorobenzyl)-3-(4,4-dimethyltetrahydrofuran-3-yl)-3H-imidazo[4,5-b]pyridine-5-carboxylic acid]: the EC50 stood at 644 pM.
